Results from BindingDB's records for doi:10.1021/jm010468s (Pfizer, 2002).
Non-standard residues stand in square brackets, D forms with d. Residues, ends and D or L forms follow the SMILES beside them. Trp(6-Cl) = N[C@@H](Cc1c[nH]c2cc(Cl)ccc12)C(=O)O; Pmp = N[C@@H](Cc1ccc(CP(=O)(O)O)cc1)C(=O)O; Ac3c = NC1(C(=O)O)CC1; Aib = CC(C)(N)C(=O)O

Test: Inhibition of p53 binding to […] (hdm2-GST)

SMILES: CSCC[C@H](NC(=O)[C@H](Cc1ccccc1)NC(C)=O)C(=O)NC(C)(C)C(=O)N[C@@H](Cc1ccc(CP(=O)(O)O)cc1)C(=O)N[C@@H](Cc1c[nH]c2cc(Cl)ccc12)C(=O)N[C@@H](CCC(=O)O)C(=O)NC1(C(=O)N[C@@H](CC(C)C)C(N)=O)CC1 [Ac-Phe-Met-Aib-Pmp-6-Cl-Trp-Glu-Ac3c-Leu-NH2, GST-hdm2 binding peptide] (Ac-FM[Aib][Pmp][Trp(6-Cl)]E[Ac3c]L-NH2)
- IC50: 5 nM
